US9862748B2, “Peptide compounds and methods of production and use thereof” (priority 2012, dated 2018)
Square brackets hold non-standard residues; d marks the D form. Peptide text beside a SMILES is read from it. AEEA = NCCOCCOCC(=O)O

Key:
Salmonella typhimurium = assay: In vitro bactericidal assay; format: cell-based
Experimental: (§1) In vitro bactericidal activity: The three peptide compounds BCC01-5RMP (SEQ ID NO: 21), BCC02-5RMP (SEQ ID NO: 22), and BCC03-5RMP (SEQ ID NO: 23) were assayed for in vitro bactericidal activity against Pseudomonas aeruginosa, Escherichia coli, Salmonella typhimurium, and Acinetobacter baumannii. The starting inoculum for all experiments was 1×10^6 colony forming units (CFU)/ml. The CFU remaining at the end of 60 to 180 minute incubation was determined, and the data plotted as a log reduction in CFU/ml.

Pseudomonas LPS = assay: LPS binding, Limulus Amebocyte Lysate (LAL) assay
Experimental: (§2) The well-characterized response of RAW264.7 macrophage cells was used to produce tumor necrosis-factor-alpha (TNF-α) in response to LPS to determine whether the peptides could dampen the release of this cytokine. […] Importantly, pre-treatment (3 hours prior to LPS addition) as well as post-treatment of the RAW264.7 cells (3 hours post LPS addition) with peptide dampened the cytokine release. […] The finding that the novel peptides bind and neutralize the effect of Pseudomonas LPS is of critical importance since this ensures that the novel therapeutic peptide compounds described herein will not only kill the bacteria, but will also neutralize the LPS endotoxin released by the bacteria which plays such an important role in the rapid progression of sepsis.
(§3) BCC01-5RMP (SEQ ID NO: 21), BCC02-5RMP (SEQ ID NO: 22), and BCC03-5RMP (SEQ ID NO: 23) were tested for their ability to bind lipopolysaccharide (LPS) using the limulus amebocyte lysate method (LAL). […] There was no statistical difference in their ability to bind LPS using the LAL technique. The ability of the peptides to neutralize LPS was assessed by determining their ability to attenuate the release of tumor necrosis factor-alpha (TNF-α) from LPS-stimulated RAW264.7 cells (a mouse macrophage cell line). […] No significant differences were observed between the three peptides to neutralize LPS as measured by cytokine release.

RAW264.7 cells = assay: LPS neutralization: TNF-α release from LPS-stimulated RAW264.7 cells; format: cell-based, mouse
Experimental: as §2, §3

[1] = test system: Acinetobacter baumannii ATCC® BAA-747™; format: cell-based; conditions: starting inoculum 1×10^6 CFU/ml; 60 to 180 minute incubation
Experimental: as §1
For FIGS. 10-13, in vitro bactericidal assays were performed using a starting inoculum of 1×10^6 CFU/ml of the bacterial suspension. The CFU remaining at the end of the 60-180 minute incubation was determined, and the data was plotted as log reduction in CFU/ml.
In particular, each of the test peptides (CAP37 peptides 120-146WR, 120-146WH, and 95-122 (SEQ ID NOs: 30, 31, and 26, respectively)) was used at 25, 12.5, 6.25, and 3.12 μM. Gentamicin was used at 4 μg/ml. 1×10^6/ml Acinetobacter baumannii ATCC® BAA-747™ or Pseudomonas aeruginosa ATCC® 27853™ (American Type Culture Collection, Manassas, Va.) were incubated with the peptides, negative buffer control (tryptone saline), and positive control gentamicin at pH 5.5 or 7.2. A 60 minute incubation was used for Acinetobacter baumannii ATCC® BAA-747™, while a 180 minute incubation was used for Pseudomonas aeruginosa ATCC® 27853™. 50 μl aliquots were plated out on agar plates and incubated overnight. Colony forming units were counted after overnight incubation and CFU/ml calculated.

[2] = test system: Pseudomonas clinical isolate B64; assay: BIOSCREEN C growth assay / MIC, antibiotic in combination with peptide; format: cell-based, P. aeruginosa
Experimental: The peptide and antibiotics were set up in the wells of the microtiter plate at starting ratios of MIC equivalents of antibiotic:peptide at 3:1, 1:1, and 1:3. They were serially diluted to concentrations well below suboptimal/sublethal levels of the antibiotic and peptide. The organism was added (1×10^5 CFU/well), the BIOSCREEN C™ assay (Growth Systems USA, Piscataway, N.J.) was performed, and data was collected over 24 hours.

[3] = test system: human corneal epithelial cell (HCEC); assay: HCEC chemotaxis, modified Boyden chemotaxis chamber assay; format: cell-based; conditions: 120-146QH 10^−4 to 10^−10 M; 120-146QR 10^−6 and 10^−8 M; HB-EGF 50 ng/ml; rCAP37 250 ng/ml; 3 hours
Experimental: The effect of buffer control (0.1% BSA in Gey's buffer), heparin binding-epidermal growth factor (HB-EGF, 50 ng/ml), recombinant CAP37 (rCAP37, 250 ng/ml), 120-146QH ([…], 10^−10M, 10^−8M, 10^−4M, and 10^−4M,) and 120-146QR (10^−10M, 10^−8M, 10^−6M, and 10^−4M) on HCEC chemotaxis was determined by the modified Boyden chemotaxis chamber method. HCEC chemotaxis was measured in response to HB-EGF, rCAP37, and peptides 120-146QH (SEQ ID NO: 29) and 120-146QR (SEQ ID NO: 28) after incubation for 3 hours at 37° C. Chemotaxis is expressed as a percent migration. The buffer control (no chemoattractant) is arbitrarily assigned the value of 100% migration. Data are expressed as means±SEM and are calculated from 6 observations for each test point. **P<0.01 by Wilcoxon signed-rank test as compared to controls.
Chemotaxis assays were performed using the modified Boyden chemotaxis chamber assay. Peptide 120-146QH was used at 10^−4M, 10^−6M, 10^−8 M, 10^−10 M, and 10^−12M, and peptide 120-146QR was used at 10^−4M, 10^−6M, 10^−8 M, and 10^−10 M.

[4] = test system: mouse cornea (corneal epithelial abrasion); assay: In vivo model of corneal wound healing
Experimental: The in vivo model of wound healing was carried out using a disposable biopsy punch (2 mm, Miltex, York, Pa.) to demarcate the mouse cornea and a 0.5 mm burr using the AlgerBrush II (The Alger Company, Inc., Lago Vista, Tex.) to remove the corneal epithelium.
Mice were anesthetized using ketamine (100 mg/kg; Bionichepharma, LLC., St. Lake Forrest, Ill.) and xylazine ([…]; Rompun; Bayer Corp., Shawnee Mission, Kans.), and the right cornea was wounded as follows. A disposable biopsy punch (2 mm, Miltex, York, Pa.) was used to demarcate the mouse cornea. The corneal epithelium was carefully removed within the 2 mm demarcated area with a 0.5 mm burr using the AlgerBrush II (The Alger Company, Inc., Lago Vista, Tex.). The corneal abrasions were treated at 0 and 16 hours with HB-EGF (250 ng/ml), rCAP37 (250 ng/ml), or vehicle control (0.9% sodium chloride, pH 5.5, Baxter, Deerfield, Ill.). Corneal abrasions were visualized using sterile fluorescein sodium ophthalmic strips USP (FLUORETS®, Chauvin Laboratory, Aubenas, France) dampened with sterile PBS. Images were taken at 0, 16, 24, and 48 hours immediately following fluorescein staining using a surgical microscope equipped with a camera (Carl Zeiss OPMI VISU 140, Carl Zeiss Surgical, Inc., Oberkochen, Germany). The areas of the open wound were quantitated using ImageJ software (US National Institutes of Health), and the results were reported as the percentage of wound closure.
Whole mouse eyes were collected for histology at 0, 6, 16, 24, and 48 hours post wounding and were immediately placed in Prefer fixative (Anatech LTD., Battle Creek, Mich.) for 20 minutes before being transferred to 70% ethanol. Tissues were paraffin-embedded and cut at a thickness of 5 μm, mounted on SUPERFROSTPLUS® slides (Statlab Medical Products, Lewisville, Tex.), and subsequently deparaffinized, rehydrated, and washed in deionized water. Sections were stained with hematoxylin (Leica Microsystems, Buffalo Grove, Ill.) and rinsed twice in deionized water before being washed in Blue Buffer (Leica Microsystems). The sections were finally washed in deionized water and 95% ethanol prior to being counterstained with eosin (Leica Microsystems). Sections were dehydrated in ethanol and cleared in xylene.

HCEC monolayers = assay: In vitro scratch assay of wound closure; format: cell-based, human
Experimental: An in vitro scratch assay was used in order to determine the ability of rCAP37 to facilitate corneal wound healing. Human corneal epithelial cells were cultured as described above until they reached a confluent monolayer. Each monolayer was scratched using a 10 μl pipette tip to create two perpendicular lines. Monolayers were treated with heparin binding-epidermal growth factor (HB-EGF, 250 ng/ml; Becton Dickinson), rCAP37 (25-2000 ng/ml), or basal KSFM (Gibco). Wound closure was monitored at 0, 18, 24, and 48 hours utilizing a camera-equipped inverted microscope (TE2000-E; Nikon, Melville, N.Y.). Time-lapse images of in vitro wound closure were obtained using a camera-equipped inverted microscope (TE2000-E; Nikon) from 0-18 hours. HCEC monolayers were treated with HB-EGF, rCAP37, and basal KSFM as described above. The width of each scratch was quantitated using ImageJ software (US National Institutes of Health, Bethesda, Md.). Results are presented as the percentage of wound closure.

[5] = 250 ng/ml topical at 0 and 16 hours

Molecule	activity against Salmonella typhimurium (Salmonella typhimurium)	binding of Pseudomonas LPS (LAL) (Pseudomonas LPS)	release of TNF-α in response to Pseudomonas LPS (RAW264.7 cells)	activity against Acinetobacter baumannii [1]	effect of added peptide on sensitivity of the bacterium to Cefotaxime ([2]; 3.04 μg/ml peptide with Cefotaxime 2.81 μg/ml, P=0.0143)	effect of added peptide with Levofloxacin, Fractional area (FA) ([2]; 3.04 μg/ml peptide with Levofloxacin 3.6 μg/ml)	effect of added peptide on killing by Ciprofloxacin ([2]; 4.05 μg/ml peptide with […] Ciprofloxacin, P=0.0003)	effect of added peptide on the killing effect of Cefotaxime ([2]; 0.34 and 1.0 μg/ml peptide with Cefotaxime 2.81 μg/ml)	HCEC migration versus buffer control [3]	re-epithelialization at 24 hours versus vehicle (H&E histology) ([4]; 250 ng/ml)	wound closure at 16 hours [4, 5] [%]	wound closure at 24 hours [4, 5] [%]	percentage wound closure in vitro (HCEC monolayers; 250 ng/ml, at 18 hours) [%]	percentage wound closure in vitro (HCEC monolayers; 500 ng/ml)
CC[C@H](C)[C@H](NC(=O)[C@H](CC(C)C)NC(=O)[C@H](C)NC(=O)CNC(=O)CNC(=O)[C@H](CS)NC(=O)[C@H](Cc1ccccc1)NC(=O)[C@H](Cc1c[nH]cn1)NC(=O)[C@H](CCCNC(=N)N)NC(=O)CNC(=O)[C@H](CCC(N)=O)NC(=O)[C@H](CC(N)=O)NC(=O)[C@H](CCCNC(=N)N)NC(=O)[C@H](CCCNC(=N)N)NC(=O)[C@H](CCCNC(=N)N)NC(=O)[C@H](CCCNC(=N)N)NC(=O)COCCOCCNC(=O)COCCOCCN)C(=O)N[C@@H](Cc1c[nH]cn1)C(=O)N[C@@H](C)C(=O)N[C@@H](CCCNC(=N)N)C(=O)N[C@@H](Cc1ccccc1)C(=O)N[C@H](C(=O)N[C@@H](CCSC)C(=O)N[C@H](C(=O)N[C@@H](C)C(=O)N[C@@H](C)C(=O)N[C@@H](CO)C(=O)N[C@@H](CS)C(=O)N[C@@H](Cc1ccccc1)C(=O)N[C@@H](CCC(N)=O)C(=O)N[C@@H](CCCNC(=N)N)C(=O)O)[C@@H](C)O)C(C)C [BCC01-5RMP] (H-[AEEA][AEEA]RRRRNQGRHFCGGALIHARFVMTAASCFQR-OH; N-terminus and C-terminus assumed)	strong, but lesser activity	bound Pseudomonas LPS	attenuate the release of TNF-α	most active	–	–	–	–	–	–	–	–	–	–
CC[C@H](C)[C@H](NC(=O)[C@H](CC(C)C)NC(=O)[C@H](C)NC(=O)CNC(=O)CNC(=O)[C@H](CO)NC(=O)[C@H](Cc1ccccc1)NC(=O)[C@H](Cc1c[nH]cn1)NC(=O)[C@H](CCCNC(=N)N)NC(=O)CNC(=O)[C@H](CCC(N)=O)NC(=O)[C@H](CC(N)=O)NC(=O)[C@H](CCCNC(=N)N)NC(=O)[C@H](CCCNC(=N)N)NC(=O)[C@H](CCCNC(=N)N)NC(=O)[C@H](CCCNC(=N)N)NC(=O)COCCOCCNC(=O)COCCOCCN)C(=O)N[C@@H](Cc1c[nH]cn1)C(=O)N[C@@H](C)C(=O)N[C@@H](CCCNC(=N)N)C(=O)N[C@@H](Cc1ccccc1)C(=O)N[C@H](C(=O)N[C@@H](CCSC)C(=O)N[C@H](C(=O)N[C@@H](C)C(=O)N[C@@H](C)C(=O)N[C@@H](CO)C(=O)N[C@@H](CS)C(=O)N[C@@H](Cc1ccccc1)C(=O)N[C@@H](CCC(N)=O)C(=O)N[C@@H](CCCNC(=N)N)C(=O)O)[C@@H](C)O)C(C)C [BCC02-5RMP] (H-[AEEA][AEEA]RRRRNQGRHFSGGALIHARFVMTAASCFQR-OH; N-terminus and C-terminus assumed)	strong, but lesser activity	bound Pseudomonas LPS	attenuate the release of TNF-α	most active	now sensitive	shows significance	significantly affected killing	no statistical effect	–	–	–	–	–	–
CAP37: cationic antimicrobial protein of Mr 37 kDa; recombinant CAP37 produced in human embryonic kidney (HEK) 293 cells (protein) IVGGRKARPRQFPFLASIQNQGRHFCGGALIHARFVMTAASCFQSQNPGVSTVVLGAYDLRRRERQSRQTFSISSMSENGYDPQQNLNDLMLLQLDREANLTSSVTILPLPLQNATVEAGTRCQVAGWGSQRSGGRLSRFPRFVNVTVTPEDQCRPNNVCTGVLTRRGGICNGDGGTPLVCEGLAHGVASFSLGPCGRGPDFFTRVALFRDWIDGVLNNPGP	–	–	–	–	–	–	–	–	significant increase in migration	greatly accelerated	71	83	~71	approximately 62%
